Reference: patent US10821079B2, “PKC activators and combinations thereof” (Cognitive Research Enterprises, Inc., priority 2011, dated 2020)
Entries after “also recorded” stand apart in the source; their conditions may differ.

How the values were obtained:
PKC-ε [1] = target: T1, PKC-ε (Homo sapiens, UniProt Q02156); assay: Activation of purified PKC isozymes, radiometric: PKC-ε; type: biochemical
T1 sequence (Q02156 1-737): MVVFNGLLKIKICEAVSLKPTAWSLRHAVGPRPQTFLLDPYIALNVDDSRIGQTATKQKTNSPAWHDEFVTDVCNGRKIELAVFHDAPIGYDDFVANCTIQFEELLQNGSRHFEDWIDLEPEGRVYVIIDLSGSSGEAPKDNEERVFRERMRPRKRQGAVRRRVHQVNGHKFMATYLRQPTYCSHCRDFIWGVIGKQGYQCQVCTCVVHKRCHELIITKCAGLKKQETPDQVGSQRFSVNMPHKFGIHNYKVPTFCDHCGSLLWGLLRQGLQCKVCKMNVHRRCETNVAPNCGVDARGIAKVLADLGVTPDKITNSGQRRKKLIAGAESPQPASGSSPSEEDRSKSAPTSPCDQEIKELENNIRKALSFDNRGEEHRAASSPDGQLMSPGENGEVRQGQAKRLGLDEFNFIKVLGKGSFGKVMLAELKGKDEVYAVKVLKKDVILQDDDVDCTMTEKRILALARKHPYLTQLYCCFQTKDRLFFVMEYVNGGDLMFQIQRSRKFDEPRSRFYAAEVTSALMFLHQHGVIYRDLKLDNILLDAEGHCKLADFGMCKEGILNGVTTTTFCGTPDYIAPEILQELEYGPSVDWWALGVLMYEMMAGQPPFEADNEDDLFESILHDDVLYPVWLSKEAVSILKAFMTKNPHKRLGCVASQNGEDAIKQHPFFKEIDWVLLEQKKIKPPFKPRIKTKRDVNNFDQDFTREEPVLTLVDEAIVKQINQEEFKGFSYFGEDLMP
Protocol: (§1) To measure PKC, 10 μl of cell homogenate or purified PKC isoform was incubated for 15 min at 37° C. in the presence of 10 μM histones, 4.89 mM CaCl2, 1.2 μg/μl phosphatidyl-L-serine, 0.18 μg/μl 1,2-dioctanoyl-sn-glycerol, 10 mM MgCl2, 20 mM HEPES (pH 7.4), 0.8 mM EDTA, 4 mM EGTA, 4% glycerol, 8 μg/ml aprotinin, 8 μg/ml leupeptin, and 2 mM benzamidine. [γ32P]ATP (0.5 μCi) was added and 32P-phosphoprotein formation was measured by adsorption onto phosphocellulose as described previously. See Nelson et al., J. Neurochemistry, 1995, 65: 2350-2357.
(§2) PKC activity of each compound was measured in the absence of diacylglycerol and phosphatidylserine and PKC-δ and PKC-ε were measured in the absence of added EGTA and CaCl2, as described by Kanno et al., J. Lipid Res., 2006, 47: 1146-1156. Low concentrations of Ca^2+ were needed because high Ca^2+ can interact with the PKC phosphatidylserine binding site and prevents activation. […] To determine their PKC isoform specificity, the compounds were pre-incubated with purified isoforms of PKC for five minutes and the PKC activity was measured radiometrically.
(§3) The activation and PKC isozyme specificity of DCPLA-ethyl ester was measured following the procedures in Example 1(B) and (C), except that 9 ng of the purified isozyme was used and it was pre-incubated for 5 minutes at room temperature (FIG. 3). PKC-ε activation by DCPLA-tert-butyl ester and DCPLA-retinyl ester was measured in the same manner as DCPLA-ethyl ester (FIG. 3).
The EC50 values, PKC specificity, and activation for a select number of DCPLA esters was determined (see Table 1). EC50 values were determined by measuring the lowest concentration that activates by 50% of maximum activation. […] The specificity and activation of PKC by the various esters of DCPLA were calculated from the measurements of activation of PKC isozymes.

PKC-δ = PKC-δ (Homo sapiens, UniProt Q05655); assay: Activation of purified PKC isozymes, radiometric: PKC-δ; type: biochemical
Protocol: (§4) To measure PKC activity, 10 μg of protein from either cytosol or membrane was incubated for 15 min at 37° C. in the presence of 10 μM histones, 4.89 mM CaCl2, 1.2 μg/μl phosphatidyl-L-serine, 0.18 μg/μl 1,2-dioctanoyl-sn-glycerol, 10 mM MgCl2, 20 mM HEPES (pH 7.4), 0.8 mM EDTA, 4 mM EGTA, 4% glycerol, 8 μg/ml aprotinin, 8 μg/ml leupeptin, 2 mM benzamidine, and 0.5 μCi of [γ-^32P]ATP. [^32P]Phosphoprotein formation was measured by adsorption onto phosphocellulose as described previously. See Nelson et al. (2009) J Biol Chem 284, 34514-34521. For measurements of activation by RA, PKC activity was measured in the absence of diacylglycerol (DAG) and phosphatidylserine, as described by Nelson et al. (2009) J Biol Chem 284, 34514-34521. PKC-δ and PKC-ε were measured in the absence of added EGTA and CaCl^2, as described by Kanno et al. (2006) J Lipid Res 47, 1146-1156. The enzyme was provided as a purified isozyme for in vitro experiments.
as §1, §2

PKCα = PKCα (Homo sapiens, UniProt P17252); assay: Activation of purified PKC isozymes, radiometric: PKC-α; type: biochemical
Protocol: as §4, §1, §2, §3

PKC-ε [2] = assay: PKC-ε translocation to membrane in SH-SY5Y cells (Western blot); type: cell-based, human
Protocol: Cells were harvested in homogenizing buffer containing 10 mM Tris-Cl (pH 7.4), 1 mM PMSF (phenylmethylsulfonyl fluoride), 1 mM EGTA, 1 mM EDTA, 50 mM NaF, and 20 μM leupeptin and were lysed by sonication. The homogenate was centrifuged at 100,000×g for 15 min at 4° C. to obtain the cytosolic fraction (supernatant) and membrane (pellet). The pellet was resuspended in the homogenizing buffer by sonication. Protein concentration was measured using the Coomassie Plus (Bradford) Protein Assay kit (Pierce, USA). Following quantification, 20 μg of protein from each sample was subjected to SDS-PAGE analysis in 4-20% gradient Tris-Glycine gel (Invitrogen, USA). The separated protein was then transferred to nitrocellulose membrane. The membrane was blocked with BSA at room temperature for 15 min and was incubated with primary antibody over night at 4° C. After the incubation, it was washed three times with TBS-T (Tris Buffered saline-Tween 20) and further incubated with alkaline phosphatase conjugated secondary antibody (Jackson Immunoresearch Laboratories, USA) at 1:10,000 dilution for 45 min. The membrane was finally washed three times with TBS-T and developed using the 1-step NBT-BCIP substrate (Pierce, USA). Western Blot was imaged in the ImageQuant RT-ECL (GE Life Sciences, Piscataway, N.J.) and densitometric quantification was performed using the IMAL software (Blanchette Rockefeller Neurosciences Institute, Morgantown, W. Va.). For translocation assays, PKC activation was represented as the percentage of total protein in the membrane (membrane/cytosol+membrane).
Equal amounts of proteins were loaded in each lane (20 μg) for both the cytosol and membrane fractions. Activation of PKC was calculated as the percentage of total PKC in the membrane (membrane/cytosol+membrane).

Sequence of PKC-δ (Q05655 whole entry): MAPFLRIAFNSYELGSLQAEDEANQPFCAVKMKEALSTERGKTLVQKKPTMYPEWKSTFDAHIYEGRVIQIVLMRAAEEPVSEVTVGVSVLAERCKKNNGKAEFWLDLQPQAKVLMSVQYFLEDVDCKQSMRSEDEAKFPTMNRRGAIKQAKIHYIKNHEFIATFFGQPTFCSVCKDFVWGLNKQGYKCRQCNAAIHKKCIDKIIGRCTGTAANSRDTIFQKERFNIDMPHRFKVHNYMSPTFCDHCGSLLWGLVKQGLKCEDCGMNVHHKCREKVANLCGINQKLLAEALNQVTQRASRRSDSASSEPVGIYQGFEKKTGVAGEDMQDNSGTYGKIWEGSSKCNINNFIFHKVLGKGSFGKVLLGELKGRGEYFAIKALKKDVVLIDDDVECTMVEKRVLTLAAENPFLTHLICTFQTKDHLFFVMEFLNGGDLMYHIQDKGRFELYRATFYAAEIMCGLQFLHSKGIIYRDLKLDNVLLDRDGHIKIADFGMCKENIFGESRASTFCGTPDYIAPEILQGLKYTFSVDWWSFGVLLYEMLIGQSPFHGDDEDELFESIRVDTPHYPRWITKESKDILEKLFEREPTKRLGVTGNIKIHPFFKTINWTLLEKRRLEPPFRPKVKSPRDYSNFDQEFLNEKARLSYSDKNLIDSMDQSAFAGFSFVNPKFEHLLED

SMILES	PKC-ε activation (in words) (PKC-ε [1])	effect on PKC-δ (in words) (PKC-δ)	effect on PKC-α (in words) (PKCα)	PKC-ε translocation (in words) (PKC-ε [2]; Aβ1-42 monomers 1 μM, DCPLA-ME added to ASPD-treated cells)	PKC-ε activation at peak (PKC-ε [1])	concentration range activating PKC-ε by more than 50% (PKC-ε [1]) [µM]	Specificity ε/α (PKC-ε [1]; Activation of PKC-ε ÷ activation or inhibition of PKCα at 3 × EC50)	PKC-ε translocation over time (in words) (PKC-ε [2]; 0.27 nM, 0-60 min)
CC1=C(/C=C/C(C)=C/C=C/C(C)=C/C(=O)O)C(C)(C)CCC1 [RA, All-trans retinoic acid]	not activated	not activated	not activated					
CCCCCC1CC1CC1CC1CCCCCCCC(=O)OC (stereo not shown) [DCPLA-ME, methyl 8-(2-((2-pentylcyclopropyl)methyl)cyclopropyl)octanoate]		did not have a major effect; also recorded: less inhibitory effect on PKC-δ than DHA-CP6 and DCPLA	did not have a major effect	restored PKC-ε translocation to normal	up to 190 % of control	0.01 to 10	12.1	
CCC/C=C/C=C/C(=O)O[C@H]1/C(=C/C(=O)OC)C[C@H]2C[C@H]([C@@H](C)O)OC(=O)C[C@H](O)C[C@@H]3C[C@H](OC(C)=O)C(C)(C)C(O)(C[C@@H]4C/C(=C/C(=O)OC)C[C@H](/C=C/C(C)(C)[C@]1(O)O2)O4)O3 [Bryostatin-1]								remained activated at 60 min
